Laboratory results: patent US20180125993A1 (BEIJING COTIMES BIOTECH COMPANY LIMITED, priority 2014, published 2018)
Marks after values point to notes of the source that are not given here.

What was measured:
[1] = tested on: WI-38, HFL-1, HUV-EC-C, human hepatic differentiated cells; assay: Cytotoxicity of HuCTB006 on human normal tissue cell lines; assay type: cell-based; conditions: 24 hours after the treatments
Source text: Several human normal tissue cell lines, including human lung epithelial fibroblasts WI-38, human embryonic lung fibroblasts HFL-1, human umbilical vein epithelial cells HUV-EC-C, and human hepatic differentiated cells, which were derived from liver genitor cells (obtained from Peking University Third Hospital). […] The culture medium for WI-38 was MEM, and the culture medium for HFL-1 and HUV-EC-C was F-12K.

Daudi = assay: In vitro cytotoxic sensitivity of CTB006; assay type: cell-based, human; conditions: B cell lymphoma
Raji = assay: In vitro cytotoxic sensitivity of CTB006; assay type: cell-based, human; conditions: B cell lymphoma
H460 = assay: In vitro cytotoxic sensitivity of CTB006; assay type: cell-based, human; conditions: H460, Lung cancer
A427 = assay: In vitro cytotoxic sensitivity of CTB006; assay type: cell-based, human; conditions: A427, Lung cancer
Huh-7 = assay: In vitro cytotoxic sensitivity of CTB006; assay type: cell-based, human; conditions: Huh-7, Liver cancer
HT-29 = assay: In vitro cytotoxic sensitivity of CTB006; assay type: cell-based, human; conditions: HT-29, Colorectal cancer
SW620 = assay: In vitro cytotoxic sensitivity of CTB006; assay type: cell-based, human; conditions: SW620, Colorectal cancer
SKOV3 = assay: In vitro cytotoxic sensitivity of CTB006; assay type: cell-based, human; conditions: SKOV3, Ovarian cancer
OVCA3 = assay: In vitro cytotoxic sensitivity of CTB006; assay type: cell-based, human; conditions: OVCA3, Ovarian cancer
MDA-MB-361 = assay: In vitro cytotoxic sensitivity of CTB006; assay type: cell-based, human; conditions: MDA-MB-361, Breast cancer
MDA-MB-453 = assay: In vitro cytotoxic sensitivity of CTB006; assay type: cell-based, human; conditions: MDA-MB-453, Breast cancer
BGC823 = assay: In vitro cytotoxic sensitivity of CTB006; assay type: cell-based, human; conditions: BGC823, Stomach cancer
NUGC3 = assay: In vitro cytotoxic sensitivity of CTB006; assay type: cell-based, human; conditions: NUGC3, Stomach cancer
BGC803 = assay: In vitro cytotoxic sensitivity of CTB006; assay type: cell-based, human; conditions: BGC803, Stomach cancer
PANC-1 = assay: In vitro cytotoxic sensitivity of CTB006; assay type: cell-based, human; conditions: PANC-1, Pancreatic cancer
WiDr = assay: Human colon cancer Widr subcutaneous model (Day 27 after treatment); assay type: in vivo, nude mice
Description: Tumor cells (i.e., MIA-PaCa-2, WiDr, H2122, colo205) were inoculated in nude mice's flank at 5×10^6 cells per mouse. The mice were grouped when the average volume of tumors reached about 100˜200 mm^3. “QW”=weekly dose. “Q3d”=dosed every third day. “BiW”=biweekly.
The bodyweight and major/minor axis of the mice were measured twice a week, and the tumor volumes were calculated using the formula: Tumor volume=1/2×major axis[…]. […] “T” represents average tumor volume of the experimental group (cm^3), and “C” represents average tumor volume of the control group (cm^3). The animals were monitored at all times. The bodyweight and major/minor axis or mice were measured twice a week.
Tumor volumes were represented with average±standard error. […] P<0.05 represents significant difference.

colon cancer, CS146, 2# = assay: Patients primary tumor tissue subcutaneous model (Day 30 after treatment); assay type: in vivo, nude mice; conditions: HuCTB006 10 mg/kg i.v. QW × 6w alone
Source text: (§1) Fresh primary tumor tissues from patients were implanted in NOD/SCID mice's flank, which developed into a primary tumor, which was then transferred to the nude mice's flank to allow the tumor reaching an exponential growth phase, and the tumor was named 1# tumor, and so on. When the tumor volume and number reached passage requirements, they were implanted into the right flank of nude mice. When the tumors' average volumes reached 100-200 mm^3, the mice were grouped.
(§2) The bodyweight and major/minor axis of mice were measured twice a week, and Tumor Growth Inhibition (TGI) and tumor volume were calculated same as in 5.1.5. In addition, to evaluate the synergetic effect of drug combination in tumor growth, Jin Zhengjun Q value judgment method was used with the follow formula: Q=Ea+b/(Ea+Eb−Ea×Eb). Ea+b is the inhibition ratio of drug combination, Ea and Eb are the inhibition ratio of each of drug treatment when it is administered alone. […] The animals were monitored, and when the experiments were concluded, mice were sacrificed and tumors were extracted and weighted. All the animal experiments confer to the regulations of animal's welfare and the management of experimental animal usage.
Tumor volumes were represented with average±standard error. Data analysis was done using Spss16.0, One-Way ANOVA, LSD (homogeneity of variance) or Dunnett T3 (non-homogeneity of variance). […]

lung cancer, CS225, 1# = assay: Patients primary tumor tissue subcutaneous model (Day 37 after treatment); assay type: in vivo, nude mice; conditions: HuCTB006 10 mg/kg i.v. QW × 5w
Source text: as §1, §2
Tumor volumes were represented with average±standard error. Data analysis was done using Spss16.0, One-Way ANOVA, LSD (homogeneity of variance) or Dunnett T3 (non-homogeneity of variance). […] P<0.05 represents significant difference.

[2] = HuCTB006 0.07 mg/kg i.v. QW × 4W
[3] = HuCTB006 0.07 mg/kg i.v. QW × 4W, 0.07 mg/kg
[4] = HuCTB006 0.07 mg/kg i.v. QW × 4W, listed as HUCTB006, 0.07 mg/kg
[5] = HuCTB006 0.22 mg/kg i.v. QW × 4W
[6] = HuCTB006 0.22 mg/kg i.v. QW × 4W, 0.22 mg/kg
[7] = HuCTB006 0.22 mg/kg i.v. QW × 4W, listed as HUCTB006, 0.22 mg/kg
[8] = HuCTB006 0.67 mg/kg i.v. QW × 4W
[9] = HuCTB006 0.67 mg/kg i.v. QW × 4W, 0.67 mg/kg
[10] = HuCTB006 0.67 mg/kg i.v. QW × 4W, listed as HUCTB006, 0.67 mg/kg
[11] = HuCTB006 2 mg/kg i.v. QW × 4W, 2 mg/kg
[12] = HuCTB006 2 mg/kg i.v. QW × 4W, listed as HUCTB006, 2 mg/kg
[13] = repeated experiment, HuCTB006 0.07 mg/kg
[14] = repeated experiment, HuCTB006 0.22 mg/kg
[15] = repeated experiment, HuCTB006 0.67 mg/kg
[16] = repeated experiment, HuCTB006 2 mg/kg

## HuCTB006: Monospecific humanized chimeric monoclonal antibody directed to TRAIL-R2 receptor; heavy chain SEQ ID NO: 14, light chain SEQ ID NO: 12
[1]
  cytotoxicity on human normal tissue cells: no cytotoxicity
Daudi
  In vitro cytotoxic sensitivity of CTB006: Non-responder
Raji
  In vitro cytotoxic sensitivity of CTB006: Non-responder
H460
  In vitro cytotoxic sensitivity of CTB006: Partial-responder
A427
  In vitro cytotoxic sensitivity of CTB006: Non-responder
Huh-7
  In vitro cytotoxic sensitivity of CTB006: Non-responder
HT-29
  In vitro cytotoxic sensitivity of CTB006: Non-responder
SW620
  In vitro cytotoxic sensitivity of CTB006: Non-responder
SKOV3
  In vitro cytotoxic sensitivity of CTB006: Non-responder
OVCA3
  In vitro cytotoxic sensitivity of CTB006: Non-responder
MDA-MB-361
  In vitro cytotoxic sensitivity of CTB006: Non-responder
MDA-MB-453
  In vitro cytotoxic sensitivity of CTB006: Non-responder
BGC823
  In vitro cytotoxic sensitivity of CTB006: Partial-responder
NUGC3
  In vitro cytotoxic sensitivity of CTB006: Partial-responder
BGC803
  In vitro cytotoxic sensitivity of CTB006: Non-responder
PANC-1
  In vitro cytotoxic sensitivity of CTB006: Non-responder
WiDr; [2]
  T/C % (Calculated using tumor volume): 90.16%
  Time of tumor volume changed significantly: 7
  Tumor Volume Mean ± SEM: 1.76 ± 0.18 cm^3
  Tumor weight Mean ± SEM: 1.29 ± 0.18 g
WiDr; [3]
  TGI (Calculated using tumor volume): 6.61%
  TGI (Calculated using tumor weight): 11.99%
WiDr; [4]
  TGI (Calculated using tumor volume): 6.61% ^1
  TGI (Calculated using tumor weight): 11.99%
WiDr; [5]
  T/C % (Calculated using tumor volume): 81.49%
  Time of tumor volume changed significantly: 7
  Tumor Volume Mean ± SEM: 1.54 ± 0.18 cm^3
  Tumor weight Mean ± SEM: 1.16 ± 0.13 g
WiDr; [6]
  TGI (Calculated using tumor volume): 18.71%
  TGI (Calculated using tumor weight): 21.13%
WiDr; [7]
  TGI (Calculated using tumor volume): 18.71% ^ac
  TGI (Calculated using tumor weight): 21.13%
WiDr; [8]
  T/C % (Calculated using tumor volume): 49.54%
  Time of tumor volume changed significantly: 11
  Tumor Volume Mean ± SEM: 0.96 ± 0.10 cm^3
  Tumor weight Mean ± SEM: 0.68 ± 0.08 g
WiDr; [9]
  TGI (Calculated using tumor volume): 49.42%
  TGI (Calculated using tumor weight): 53.48%
WiDr; [10]
  TGI (Calculated using tumor volume): 49.42% ^abc
  TGI (Calculated using tumor weight): 53.48% ^a
WiDr; HuCTB006 2 mg/kg i.v. QW × 4W
  T/C % (Calculated using tumor volume): 42.17%
  Time of tumor volume changed significantly: 14
  Tumor Volume Mean ± SEM: 0.80 ± 0.11 cm^3
  Tumor weight Mean ± SEM: 0.53 ± 0.08 g
WiDr; [11]
  TGI (Calculated using tumor volume): 57.34%
  TGI (Calculated using tumor weight): 63.81%
WiDr; [12]
  TGI (Calculated using tumor volume): 57.34% ^abc
  TGI (Calculated using tumor weight): 63.81% ^a
WiDr; [13]
  TGI (Calculated using tumor volume): 36.21%
  TGI (Calculated using tumor weight): 39.94%
WiDr; [14]
  TGI (Calculated using tumor volume): 54.98%
  TGI (Calculated using tumor weight): 57.56%
WiDr; [15]
  TGI (Calculated using tumor volume): 53.73%
  TGI (Calculated using tumor weight): 49.85%
WiDr; [16]
  TGI (Calculated using tumor volume): 53.77%
  TGI (Calculated using tumor weight): 53.75%
Colon cancer, CS146, 2#
  inhibitory effect on the growth of CS146: did not
Lung cancer, CS225, 1#
  T/C % (Calculated using tumor volumes): 79.86%
  Time of tumor volume changed significantly: 16
  Tumor Volume Mean ± SEM: 0.86 ± 0.19 cm^3
  Tumor weight Mean ± SEM: 0.89 ± 0.23 g
Lung cancer, CS225, 1#; 10 mg/kg
  TGI (Calculated using tumor volumes): 19.65%
  TGI (Calculated using tumor weight): −25.23%
